What was measured:
Type in all cases: in vivo
[1] = system: Digitaria sanguinalis; assay: Re-screen assay at low dose (pot-culture method); settings: post-emergence spray, 30 days
Text: (§1) Preliminary screening test (pot-culture method): the targets of the test are Echinochloa crusgalli, Digitaria sanguinalis, Setaria viridis, Amaranthus tricolor, Chenopodium album, Abutilontheophrasti. Spraying the stems and leaves after seedlings: taking a paper cup with an inner diameter of 7 cm and fill it with composite soil (vegetable garden soil: seedling substrate, 1: 2, v/v) to 3/4 of the cup. Sowing weeds directly, cover it with 0.2 cm soil and wait until it grows to 4-5 leaves stage for later use. The compounds of the invention and the aforementioned comparative compound D1 are applied in an automatic spray tower at a dose of 150 g.a.i/ha (g/ha). After the liquid on the crop leaves is dried in the air, the crops are transferred to the greenhouse for cultivation (humidity 70%), and the results were investigated after 30 days.
(§2) The growth inhibition rate evaluation method is a visual method. The growth inhibition rate is rated specifically according to the conditions shown in table 2, and the test results are shown in Table 3.
(§3) The same method as in test example 1 is used to conduct re-screen assays at the low dose for representative compounds, and the results are shown in Table 4.

[2] = system: Echinochloa crusgalli; assay: Re-screen assay at low dose (pot-culture method); settings: post-emergence spray, 30 days
Text: as §1, §2, §3

[3] = system: Bromus japonicus; assay: Re-screen assay at low dose (pot-culture method); settings: post-emergence spray, 30 days
Text: as §1, §2, §3

[4] = system: Alopecurus aequalis; assay: Re-screen assay at low dose (pot-culture method); settings: post-emergence spray, 30 days
Text: as §1, §2, §3

[5] = system: Avena fatua; assay: Re-screen assay at low dose (pot-culture method); settings: post-emergence spray, 30 days
Text: as §1, §2, §3

[6] = system: Aegilops squarrosa; assay: Re-screen assay at low dose (pot-culture method); settings: post-emergence spray, 30 days
Text: as §1, §2, §3

[7] = system: Alopecurus japonicus; assay: Re-screen assay at low dose (pot-culture method); settings: post-emergence spray, 30 days
Text: as §1, §2, §3

[8] = system: Setaria viridis; assay: Re-screen assay at low dose (pot-culture method); settings: post-emergence spray, 30 days
Text: as §1, §2, §3

[9] = system: Digitaria sanguinalis; assay: Preliminary screening test (pot-culture method), post-emergence stem and leaf spray; settings: 150 g.a.i/ha; stems and leaves sprayed at 4-5 leaves stage; investigated after 30 days; visual rating
Text: as §1, §2

[10] = system: Chenopodium album; assay: as above; settings: 150 g.a.i/ha; stems and leaves sprayed at 4-5 leaves stage; investigated after 30 days; visual rating
Text: as §1, §2

[11] = system: Echinochloa crusgalli; assay: as above; settings: 150 g.a.i/ha; stems and leaves sprayed at 4-5 leaves stage; investigated after 30 days; visual rating
Text: as §1, §2

[12] = system: Amaranthus tricolor; assay: as above; settings: 150 g.a.i/ha; stems and leaves sprayed at 4-5 leaves stage; investigated after 30 days; visual rating
Text: as §1, §2

[13] = system: Abutilon theophrasti; assay: as above; settings: 150 g.a.i/ha; stems and leaves sprayed at 4-5 leaves stage; investigated after 30 days; visual rating
Text: as §1, §2

[14] = system: Setaria viridis; assay: as above; settings: 150 g.a.i/ha; stems and leaves sprayed at 4-5 leaves stage; investigated after 30 days; visual rating
Text: as §1, §2

[15] = system: Aegilops squarrosa, Avenafatua, Bromus japonicus, Alopecurus aequalis, and Alopecurus japonicus; assay: Re-screening with reduced concentration, summary in text for gramineous weeds of wheat fields; settings: at three application concentrations (120, 60, 30 g.a.i/ha); result in words

Cc1cccc(C)c1-n1c(=O)c2cc(C(=O)C3=C(O)CCCC3=O)ccc2n(C)c1=O [Compound D1]
Inhibition Level Digitaria sanguinalis ([1]; 30 g.a.i/ha): 3 (weeds or crops are subject to severe growth inhibition.) | Inhibition Level Digitaria sanguinalis ([1]; 60 g.a.i/ha): 3 (weeds or crops are subject to severe growth inhibition.) | Inhibition Level Digitaria sanguinalis ([1]; 120 g.a.i/ha): 4 (weeds or crops die.) | Inhibition Level Echinochloa crusgalli ([2]; 30 g.a.i/ha): 3 (weeds or crops are subject to severe growth inhibition.) | Inhibition Level Echinochloa crusgalli ([2]; 60 g.a.i/ha): 3 (weeds or crops are subject to severe growth inhibition.) | Inhibition Level Echinochloa crusgalli ([2]; 120 g.a.i/ha): 4 (weeds or crops die.) | Inhibition Level Bromus japonicus ([3]; 30 g.a.i/ha): 0 (has no influence on the growth of weeds or crops and has no drug effect symptom.) | Inhibition Level Bromus japonicus ([3]; 60 g.a.i/ha): 0 (has no influence on the growth of weeds or crops and has no drug effect symptom.) | Inhibition Level Bromus japonicus ([3]; 120 g.a.i/ha): 0 (has no influence on the growth of weeds or crops and has no drug effect symptom.) | Inhibition Level Alopecurus aequalis ([4]; 30 g.a.i/ha): 0 (has no influence on the growth of weeds or crops and has no drug effect symptom.) | Inhibition Level Alopecurus aequalis ([4]; 60 g.a.i/ha): 0 (has no influence on the growth of weeds or crops and has no drug effect symptom.) | Inhibition Level Alopecurus aequalis ([4]; 120 g.a.i/ha): 1 (slightly affects the growth of weeds or crops, and has no obvious drug effect symptom.) | Inhibition Level Avena fatua ([5]; 30 g.a.i/ha): 0 (has no influence on the growth of weeds or crops and has no drug effect symptom.) | Inhibition Level Avena fatua ([5]; 60 g.a.i/ha): 0 (has no influence on the growth of weeds or crops and has no drug effect symptom.) | Inhibition Level Avena fatua ([5]; 120 g.a.i/ha): 2 (has certain effect on weed or crop growth, and has obvious drug effect.) | Inhibition Level Aegilops squarrosa ([6]; 30 g.a.i/ha): 0 (has no influence on the growth of weeds or crops and has no drug effect symptom.) | Inhibition Level Aegilops squarrosa ([6]; 60 g.a.i/ha): 1 (slightly affects the growth of weeds or crops, and has no obvious drug effect symptom.) | Inhibition Level Aegilops squarrosa ([6]; 120 g.a.i/ha): 2 (has certain effect on weed or crop growth, and has obvious drug effect.) | Inhibition Level Alopecurus japonicus ([7]; 30 g.a.i/ha): 0 (has no influence on the growth of weeds or crops and has no drug effect symptom.) | Inhibition Level Alopecurus japonicus ([7]; 60 g.a.i/ha): 0 (has no influence on the growth of weeds or crops and has no drug effect symptom.) | Inhibition Level Alopecurus japonicus ([7]; 120 g.a.i/ha): 0 (has no influence on the growth of weeds or crops and has no drug effect symptom.) | Inhibition Level Setaria viridis ([8]; 30 g.a.i/ha): 3 (weeds or crops are subject to severe growth inhibition.) | Inhibition Level Setaria viridis ([8]; 60 g.a.i/ha): 3 (weeds or crops are subject to severe growth inhibition.) | Inhibition Level Setaria viridis ([8]; 120 g.a.i/ha): 4 (weeds or crops die.) | Inhibition Level Digitaria sanguinalis [9]: 4 (weeds or crops die.) | Inhibition Level Chenopodium album [10]: 5 (weeds or crops die completely.) | Inhibition Level Echinochloa crusgalli [11]: 4 (weeds or crops die.) | Inhibition Level Amaranthus tricolor [12]: 4 (weeds or crops die.) | Inhibition Level Abutilon theophrasti [13]: 4 (weeds or crops die.) | Inhibition Level Setaria viridis [14]: 4 (weeds or crops die.) | herbicidal activity on gramineous weeds in wheat fields [15]: hardly shows herbicidal activity

— patent publication EP3858818A1, “TRIKETONE COMPOUND, PREPARATION METHOD THEREFOR AND USE THEREOF, AND HERBICIDE” (Shandong Cynda Chemical Co., LTD., priority 2018, dated 2020)
